From ChEMBL document CHEMBL4354835, “Selective Blockade of Neuronal BK (α + β4) Channels Preventing Epileptic Seizure” (J Med Chem, 2020) come the findings set out here.

The target in assay [1] is T1, KCNMA1/KCNMB4 (Homo sapiens, UniProt Q12791+Q86W47). Kind of assay: Inhibition of human BK alpha/beta4 channel expressed in HEK293T cells assessed as K+ outward current fraction at 10 uM at -80 mV holding potential by whole cell patch clamp method relative to control. The format is cell-based. In general terms: In patch-clamp work, channel activity is measured electrically.

The species entered for assay [2] is Homo sapiens. Nature of the assay: Inhibition of human BK alpha/human beta4 Q124A mutant expressed in HEK293T cells assessed as K+ fractional outward current at 10 uM at -80 holding potential by whole cell patch clamp technique relative to control. The format is cell-based.
The species named for assay [3] is Homo sapiens. Kind of assay: Inhibition of human BK alpha/human beta-4 E104K mutant expressed in HEK293T cells assessed as K+ fractional outward current at 10 uM at -80 mV holding potential by whole cell patch clamp technique relative to control. The format is cell-based.
The species entered for assay [4] is Homo sapiens. Kind of assay: Inhibition of human BK alpha/human beta-4 E128K mutant expressed in HEK293T cells assessed as K+ fractional outward current at 10 uM at -80 mV holding potential by whole cell patch clamp technique relative to control. The format is cell-based.
The species named for assay [5] is Homo sapiens. Nature of the assay: Inhibition of human BK alpha/human beta4 E122K mutant expressed in HEK293T cells assessed as K+ fractional outward current at 10 uM at -80 mV holding potential by whole cell patch clamp technique relative to control. Type of assay: cell-based.
In assay [6] the target is T2, KCNMA1/KCNMB4 (Rattus norvegicus) (UniProt Q62976+Q9ESK8). Nature of the assay: Inhibition of BK alpha/beta-4 in PTZ-stimulated rat hippocampal pyramidal neurons assessed as longer interval of interspike at -80mV holding potential measured after 10 mins during 300pA current injection by whole cell current clamp assay. Type of assay: protein-complex assay.
Assay [7] concerns the target T2, KCNMA1/KCNMB4 (Rattus norvegicus). Nature of the assay: Inhibition of BK alpha/beta-4 in rat hippocampal pyramidal neurons assessed as inhibition of PTZ-induced action potential at -80 mV holding potential at 300 pA current injection measured after 10 mins by whole cell current clamp assay.
For assay [8] the target is unchanged. Kind of assay: Inhibition of BK alpha/beta-4 in PTZ-stimulated rat hippocampal pyramidal neurons assessed as appearance of more action potential failures at -80mV holding potential measured after 10 mins during 300pA current injection by whole cell current clamp assay. The format is protein-complex assay.
Assay [9] has the same target. Kind of assay: Inhibition of BK alpha/beta-4 in PTZ-stimulatedrat hippocampal pyramidal neurons assessed as reduction in neuronal firing rate at -80mV holding potential in presence of 200 to 300 pA current injection measured after 10 mins by whole cell current clamp assay. The format is protein-complex assay.
Assay [10] has the same target. Kind of assay: Inhibition of BK alpha/beta-4 in PTZ-stimulated rat hippocampal pyramidal neurons assessed as larger action potential width at 300 pA current injection at -80mV holding potential measured after 10 mins by whole cell current clamp assay. The format is protein-complex assay.
The target is the same in assay [11]. Nature of the assay: Inhibition of BK alpha/beta-4 in PTZ-stimulated rat hippocampal pyramidal neurons assessed as slower decay of after hyperpolarization at 300 pA at -80mV holding potential measured after 10 mins by whole cell current clamp assay. The format is protein-complex assay.
For assay [12], the species on record is Rattus norvegicus. Nature of the assay: Anticonvulsant activity against PTZ-induced epileptic seizure Sprague-Dawley rat model assessed as latency time of seizures compound infused into hippocampal region and 10 mins later injected with PTZ and measured for 2 hrs post PTZ-stimulation (reference value: 108.5 +/- 8.63 sec). Type of assay: functional.
The species entered for assay [13] is Rattus norvegicus. Kind of assay: Anticonvulsant activity against PTZ-induced epileptic seizure Sprague-Dawley rat model assessed as duration of seizure compound infused into hippocampal region and 10 mins later injected with PTZ and measured for 2 hrs post PTZ-stimulation (reference value: 376 +/- 76.43 sec). The format is functional.
The species named for assay [14] is Rattus norvegicus. Nature of the assay: Inhibition of field potential response in PTZ-induced epileptic seizure Sprague-Dawley rat model compound infused into hippocampal region and 10 mins later injected with PTZ and measured after 2 hrs by microarray electrode based analysis. The format is functional, organism-based.
The species named for assay [15] is Rattus norvegicus. Kind of assay: Effect on neuronal network in PTZ-induced epileptic seizures Sprague-Dawley rat model assessed as lowered PSD at theta wave band compound infused into hippocampal region and 10 mins later injected with PTZ and measured after 2 hrs by power spectral density analysis. The format is functional, organism-based.
Assay [16] is filed under the species Rattus norvegicus. Nature of the assay: Effect on neuronal network in PTZ-induced epileptic seizures Sprague-Dawley rat model assessed as lowered PSD at beta wave band compound infused into hippocampal region and 10 mins later injected with PTZ and measured after 2 hrs by power spectral density analysis. Type of assay: functional, organism-based.
Assay [17] is filed under the species Rattus norvegicus. Nature of the assay: Inhibition of C-Fos expression in PTZ-induced epileptic seizures Sprague-Dawley rat model assessed as inhibition of FLI-positive pyramidal neurons in CA3 region of ipsilateral hippocampus at 10 uM compound infused into hippocampal region and 10 mins later injected with PTZ and measured after 2 hrs by immunohistochemistry. The format is functional, organism-based.

The species entered for assay [18] is Rattus norvegicus. Kind of assay: Inhibition of C-Fos expression in PTZ-induced epileptic seizures Sprague-Dawley rat model assessed as inhibition of FLI-positive pyramidal neurons in CA3 region of contralateral hippocampus at 10 uM compound infused into hippocampal region and 10 mins later injected with PTZ and measured after 2 hrs by immunohistochemistry. The format is functional, organism-based.

The species entered for assay [19] is Rattus norvegicus. Nature of the assay: Neuroprotective activity in PTZ-induced epileptic seizure Sprague-Dawley rat model assessed as inhibition of hippocampal destruction by measuring increase in Nissl stained pyramidal neurons in ipsilateral hippocampus CA1 region compound infused into hippocampal region and 10 mins later injected with PTZ and measured after 3 days by Nissl staining based microscopic analysis. Type of assay: functional, organism-based.

The species named for assay [20] is Rattus norvegicus. Kind of assay: Neuroprotective activity in PTZ-induced epileptic seizure Sprague-Dawley rat model assessed as inhibition of hippocampal destruction by measuring increase in Nissl stained pyramidal neurons in contralateral hippocampus CA3 region compound infused into hippocampal region and 10 mins later injected with PTZ and measured after 3 days by Nissl staining based microscopic analysis. The format is functional, organism-based.

For assay [21], the target named is T1, KCNMA1/KCNMB4. Kind of assay: Inhibition of human BK alpha/beta4 channel expressed in HEK293T cells assessed as inhibition of K+ outward current fraction at -80 mV holding potential by whole cell patch clamp technique. Type of assay: cell-based.
The species named for assay [22] is Rattus norvegicus. Nature of the assay: Effect on neuronal network in PTZ-induced epileptic seizures Sprague-Dawley rat model assessed as reduced total PSD frequency waves compound infused into hippocampal region and 10 mins later injected with PTZ and measured after 2 hrs by power spectral density analysis. Type of assay: functional, organism-based.
The species named for assay [23] is Rattus norvegicus. Kind of assay: Inhibition of C-Fos expression in PTZ-induced epileptic seizures Sprague-Dawley rat model assessed as inhibition of FLI-positive granular neurons in DG region of ipsilateral hippocampus at 10 uM compound infused into hippocampal region and 10 mins later injected with PTZ and measured after 2 hrs by immunohistochemistry. The format is functional, organism-based.

Assay [24] relates to T3, Calcium-activated potassium channel subunit beta-4 (Homo sapiens), Q86W47 [E122K].
T3 sequence (whole entry): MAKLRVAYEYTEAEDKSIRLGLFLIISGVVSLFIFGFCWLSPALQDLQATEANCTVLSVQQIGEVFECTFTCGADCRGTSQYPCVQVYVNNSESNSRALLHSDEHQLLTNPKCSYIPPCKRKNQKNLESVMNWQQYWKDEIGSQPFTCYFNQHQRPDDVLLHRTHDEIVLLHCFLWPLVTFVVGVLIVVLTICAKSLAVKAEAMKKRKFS
Nature of the assay: Binding affinity to NT-495 fluorophore reagent labelled human BK beta4 E122K mutant incubated for 30 mins by microscale thermophoresis assay. For orientation: MST reads how a fluorescent partner responds to local heating, with and without ligand.

The structures appear in SMILES notation. Activity calls are given as the source filed them. No cut-off for these calls is given here.

T1 sequence (Q12791 whole entry): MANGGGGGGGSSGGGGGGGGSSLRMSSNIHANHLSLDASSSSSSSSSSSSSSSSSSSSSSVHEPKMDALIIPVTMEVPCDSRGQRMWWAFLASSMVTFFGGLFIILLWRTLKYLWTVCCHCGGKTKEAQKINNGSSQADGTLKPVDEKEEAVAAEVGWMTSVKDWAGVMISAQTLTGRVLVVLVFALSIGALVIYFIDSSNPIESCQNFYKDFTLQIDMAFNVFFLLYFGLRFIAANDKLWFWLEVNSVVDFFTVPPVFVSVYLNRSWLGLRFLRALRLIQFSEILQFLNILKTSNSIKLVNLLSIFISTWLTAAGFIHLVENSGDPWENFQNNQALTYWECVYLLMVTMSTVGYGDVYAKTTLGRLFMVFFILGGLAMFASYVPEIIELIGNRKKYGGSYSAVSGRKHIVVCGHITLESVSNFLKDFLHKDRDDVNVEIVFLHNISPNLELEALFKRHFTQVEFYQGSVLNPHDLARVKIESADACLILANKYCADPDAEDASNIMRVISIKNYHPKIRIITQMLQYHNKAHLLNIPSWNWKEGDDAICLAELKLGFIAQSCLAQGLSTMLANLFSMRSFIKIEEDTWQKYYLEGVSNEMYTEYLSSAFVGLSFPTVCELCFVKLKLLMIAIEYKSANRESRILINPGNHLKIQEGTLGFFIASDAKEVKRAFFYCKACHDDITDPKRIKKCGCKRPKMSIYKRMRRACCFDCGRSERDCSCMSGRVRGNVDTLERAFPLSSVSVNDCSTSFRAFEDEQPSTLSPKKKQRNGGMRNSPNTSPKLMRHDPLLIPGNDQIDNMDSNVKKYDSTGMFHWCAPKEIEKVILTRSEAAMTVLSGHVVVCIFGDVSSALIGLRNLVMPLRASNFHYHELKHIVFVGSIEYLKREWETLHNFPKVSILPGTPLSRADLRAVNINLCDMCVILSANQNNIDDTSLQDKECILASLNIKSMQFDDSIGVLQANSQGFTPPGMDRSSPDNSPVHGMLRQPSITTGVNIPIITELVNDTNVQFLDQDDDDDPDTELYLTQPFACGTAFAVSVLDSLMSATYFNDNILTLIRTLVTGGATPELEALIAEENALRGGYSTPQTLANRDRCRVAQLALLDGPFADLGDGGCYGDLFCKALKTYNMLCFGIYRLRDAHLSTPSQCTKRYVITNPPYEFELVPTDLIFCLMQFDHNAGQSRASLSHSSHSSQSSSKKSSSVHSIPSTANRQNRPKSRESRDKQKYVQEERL
T1 sequence (Q86W47 whole entry): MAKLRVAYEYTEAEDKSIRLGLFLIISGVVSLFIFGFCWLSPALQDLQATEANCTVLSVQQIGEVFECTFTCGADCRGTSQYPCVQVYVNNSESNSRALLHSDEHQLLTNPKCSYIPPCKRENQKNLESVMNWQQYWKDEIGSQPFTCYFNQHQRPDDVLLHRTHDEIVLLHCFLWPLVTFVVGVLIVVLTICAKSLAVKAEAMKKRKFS

As a reminder, the IC50 is the concentration that inhibits the measured activity by half. With `CC[C@H](C)[C@H](NC(=O)[C@H](CC(C)C)NC(=O)CNC(=O)[C@H](Cc1ccccc1)NC(=O)[C@H](CO)NC(=O)CN)C(=O)N[C@@H](CC(=O)O)C(=O)N[C@H](C(=O)N[C@@H](CCCCN)C(=O)N[C@H]1CSSC[C@@H]2NC(=O)[C@H](CCCCN)NC(=O)CNC(=O)[C@H](CCC(N)=O)NC(=O)CNC(=O)[C@H](CO)NC(=O)CNC(=O)[C@H]([C@@H](C)O)NC(=O)[C@H](C(C)C)NC(=O)[C@H](CCCCN)NC(=O)[C@H](CCCCN)NC(=O)[C@@H]3CSSC[C@@H](C(=O)N[C@@H](Cc4ccc(O)cc4)C(=O)O)N[C@@H](CCCNC(=N)N)C(=O)[C@H](CSSC[C@H](NC(=O)[C@H](CCC(=O)O)NC(=O)[C@H](CO)NC(=O)[C@H](CO)NC(=O)[C@H](C)NC(=O)[C@H](Cc4ccccc4)NC1=O)C(=O)N[C@@H](Cc1c[nH]c4ccccc14)C(=O)N[C@@H]([C@@H](C)O)C(=O)N[C@@H](C)C(=O)N3)N[C@@H](CCC(N)=O)C(=O)NC(=O)[C@H](CC(N)=O)NC(=O)[C@H](CC(N)=O)NC(=O)[C@H](CCC(N)=O)NC2=O)C(C)C`, the Ratio on KCNMA1/KCNMB4 [1] was 0.33; in the assay filed under Homo sapiens [2], 0.6; in the assay filed under Homo sapiens [3], 0.94; in the assay listed under Homo sapiens [4], 0.75; in the assay filed under Homo sapiens [5], 0.88. For the same compound, the inhibition entry in [6], in assay [7], in assay [8], in [9], in assay [10] and in [11] was “Active” each time. The inhibition result in the assay filed under Rattus norvegicus [14], in the assay listed under Rattus norvegicus [17], in the assay filed under Rattus norvegicus [18], in the assay listed under Rattus norvegicus [22] and in the assay filed under Rattus norvegicus [23] was “Active” in each case. Also, the Time in the assay listed under Rattus norvegicus [12] is 378.5 s; in the assay listed under Rattus norvegicus [13], 198 s. In addition, the result in the assay listed under Rattus norvegicus [15], in the assay filed under Rattus norvegicus [16], in the assay filed under Rattus norvegicus [19] and in the assay listed under Rattus norvegicus [20] was Active. Moreover, at KCNMA1/KCNMB4 [21], the IC50 is 602 nM. The outcome in [24] was inactive.
